Reference: article PMC11845477, “Exploring the principles behind antibiotics with limited resistance” (Nature Communications, 2025)

System: K. pneumoniae ATCC 10031 (SEN) and K. pneumoniae ATCC 700603 (MDR)
Test: Adaptive laboratory evolution (ALE), relative MIC of evolved lines
Type: cell-based, Klebsiella pneumoniae
Conditions: for Relative MIC: ALE
From the text: Using the same set of bacterial strains, we initiated adaptive laboratory evolution with the aim to maximize the level of antibiotic resistance in the populations achieved during a longer, but fixed time period.
An established protocol for adaptive laboratory evolution[46],[73] was followed to propagate populations with the highest resistance levels. Starting with an antibiotic concentration that caused approximately 50% growth inhibition, ten parallel populations for each antibiotic-ancestor strain combination were grown for 72 hours at 37 °C with continuous shaking (300 RPM). MHB broth medium was used unless stated otherwise. After each incubation, 20 µl of each culture was transferred to four new wells containing fresh medium with increasing antibiotic concentrations (0.5×, 1×, 1.5×, and 2.5× the previous concentration) in a chessboard layout to monitor potential cross-contamination. Growth was monitored by measuring OD600 using a Biotek Synergy 2 microplate reader, and only populations grown in the highest drug concentration with an OD600 > 0.2 were transferred further.
A robotic liquid handling system was used to automatically prepare a 11 to 16-step serial dilution in 384-well microtiter plates (Greiner). A final concentration of 5 × 10^5 bacterial cells per mL were inoculated into each well containing 60 µL MHB medium. Bacterial cultures were incubated at 37 °C with continuous shaking (Infors shaker, 900 rpm with 3 mm throw) for 18 hours (2 replicates from each). Cell growth was monitored by measuring the optical density (OD600 values, using Biotek Synergy microplate reader). MIC was defined as the antibiotic concentration of complete growth inhibition (i.e., OD600 < 0.05). Relative MIC was calculated as follows:1 relativeMIC=MICevolved/MICancestor […]
Supplementary Figure 4. Resistance levels following adaptive laboratory evolution across bacterial strains. The level of resistance was measured as the fold change in relative MIC between evolved and ancestral strains after ~60 days of adaptive laboratory evolution. Data are grouped by bacterial strain (A. baumannii (AB), E. coli (EC), K. pneumoniae (KP), and P. aeruginosa (PA)) and categorized as either multidrug-resistant (MDR) or sensitive (SEN). Each data point represents a laboratory evolved line, and boxplots show the median, first and third quartiles, with whiskers indicating the 5th and 95th percentiles.
Statistical analysis was performed using two-sided Dunn’s post-hoc test with Benjamini-Hochberg correction for multiple comparisons (****/ ***/ **/ * indicates p < 0.0001/ 0.001/ 0.01/ 0.05). For detailed information on antibiotic and bacterial species, see Supplementary Table 1. For mode of action groups, refer to Table 1. Source data are provided as a Source Data file.

[1] = KP-SEN (K. pneumoniae ATCC 10031), evolved line 2 of the given antibiotic
[2] = KP-SEN (K. pneumoniae ATCC 10031), evolved line 4 of the given antibiotic
[3] = KP-SEN (K. pneumoniae ATCC 10031), evolved line 5 of the given antibiotic
[4] = KP-SEN (K. pneumoniae ATCC 10031), evolved line 7 of the given antibiotic
[5] = KP-SEN (K. pneumoniae ATCC 10031), evolved line 8 of the given antibiotic

## POL7306
Klebsiella pneumoniae ATCC 10031 (KP-SEN), evolved line 1
  Relative MIC: 1
Klebsiella pneumoniae ATCC 10031 (KP-SEN), evolved line 4
  Relative MIC: 32
Klebsiella pneumoniae ATCC 10031 (KP-SEN), evolved line 7
  Relative MIC: 1
Klebsiella pneumoniae ATCC 10031 (KP-SEN), evolved line 8
  Relative MIC: 32
Klebsiella pneumoniae ATCC 10031 (KP-SEN), evolved line 10
  Relative MIC: 64
Klebsiella pneumoniae ATCC 700603 (KP-MDR), evolved line 1
  Relative MIC: 16
Klebsiella pneumoniae ATCC 700603 (KP-MDR), evolved line 2
  Relative MIC: 256
Klebsiella pneumoniae ATCC 700603 (KP-MDR), evolved line 3
  Relative MIC: 256
Klebsiella pneumoniae ATCC 700603 (KP-MDR), evolved line 4
  Relative MIC: 256
Klebsiella pneumoniae ATCC 700603 (KP-MDR), evolved line 5
  Relative MIC: 256
Klebsiella pneumoniae ATCC 700603 (KP-MDR), evolved line 6
  Relative MIC: 256
Klebsiella pneumoniae ATCC 700603 (KP-MDR), evolved line 8
  Relative MIC: 256
Klebsiella pneumoniae ATCC 700603 (KP-MDR), evolved line 10
  Relative MIC: 16

## Tridecaptin M152-P3
[1]
  MIC of evolved line: 32 µg/mL
[2]
  MIC of evolved line: 8 µg/mL
[3]
  MIC of evolved line: 64 µg/mL
KP-SEN (K. pneumoniae ATCC 10031), evolved line 6 of the given antibiotic
  MIC of evolved line: 64 µg/mL
[4]
  MIC of evolved line: 64 µg/mL
[5]
  MIC of evolved line: 4 µg/mL

## polymyxin-B
KP-MDR ATCC 700603, evolved line 1
  MIC of evolved line: 512 µg/mL
KP-MDR ATCC 700603, evolved line 2
  MIC of evolved line: 512 µg/mL
KP-MDR ATCC 700603, evolved line 3
  MIC of evolved line: 256 µg/mL
KP-MDR ATCC 700603, evolved line 4
  MIC of evolved line: 256 µg/mL
KP-MDR ATCC 700603, evolved line 5
  MIC of evolved line: 256 µg/mL
KP-MDR ATCC 700603, evolved line 6
  MIC of evolved line: 256 µg/mL
KP-MDR ATCC 700603, evolved line 7
  MIC of evolved line: 256 µg/mL
KP-MDR ATCC 700603, evolved line 8
  MIC of evolved line: 512 µg/mL
KP-MDR ATCC 700603, evolved line 9
  MIC of evolved line: 256 µg/mL
KP-MDR ATCC 700603, evolved line 10
  MIC of evolved line: 256 µg/mL
KP-SEN (K. pneumoniae ATCC 10031), evolved line 1 of the given antibiotic
  MIC of evolved line: 512 µg/mL
[1]
  MIC of evolved line: 1020 µg/mL
KP-SEN (K. pneumoniae ATCC 10031), evolved line 3 of the given antibiotic
  MIC of evolved line: 1020 µg/mL
[2]
  MIC of evolved line: 256 µg/mL
[3]
  MIC of evolved line: 1020 µg/mL
[4]
  MIC of evolved line: 256 µg/mL
[5]
  MIC of evolved line: 256 µg/mL
KP-SEN (K. pneumoniae ATCC 10031), evolved line 9 of the given antibiotic
  MIC of evolved line: 1020 µg/mL
KP-SEN (K. pneumoniae ATCC 10031), evolved line 10 of the given antibiotic
  MIC of evolved line: 32 µg/mL
